{"source": "patent EP1115693B9", "about": "“SUBSTITUTED POLYCYCLIC ARYL AND HETEROARYL $i([sequence])-HETEROALKYLAMINES USEFUL FOR INHIBITING CHOLESTERYL ESTER [sequence] PROTEIN ACTIVITY” (Monsanto Company, priority 1998, dated 2000)"}
{"target": "T1, CETP (Homo sapiens, UniProt P11597)", "T1 sequence (P11597 18-493)": "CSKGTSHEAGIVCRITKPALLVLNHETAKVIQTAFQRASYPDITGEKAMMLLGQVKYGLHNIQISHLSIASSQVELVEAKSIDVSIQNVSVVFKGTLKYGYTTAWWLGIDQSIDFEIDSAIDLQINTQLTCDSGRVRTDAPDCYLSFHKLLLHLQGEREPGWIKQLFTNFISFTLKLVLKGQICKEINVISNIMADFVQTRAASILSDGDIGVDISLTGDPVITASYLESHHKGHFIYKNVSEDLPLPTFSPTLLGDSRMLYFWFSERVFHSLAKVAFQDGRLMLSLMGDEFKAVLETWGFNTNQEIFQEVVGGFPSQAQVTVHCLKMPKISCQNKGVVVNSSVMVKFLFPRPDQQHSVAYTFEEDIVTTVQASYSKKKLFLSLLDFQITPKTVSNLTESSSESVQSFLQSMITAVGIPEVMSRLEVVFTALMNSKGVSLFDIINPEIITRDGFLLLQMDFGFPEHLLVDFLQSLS", "experiment": "Assay of CETP inhibition using purified components (reconstituted buffer assay): transfer of [3H]CE from HDL to LDL", "assay_type": "biochemical", "set-up": "made in house; host or cells: CHO cells (serum-free conditioned medium)", "details": "2 hours at 37°C", "method": "ASSAY OF CETP INHIBITION USING PURIFIED COMPONENTS (RECONSTITUTED BUFFER ASSAY)\nThe ability of compounds to inhibit CETP activity was assessed using an in vitro assay that measured the rate of transfer of radiolabeled cholesteryl ester ([^3H]CE) from HDL donor particles to LDL acceptor particles. Details of the assay are provided by Glenn, K. C. et al. (Glenn and Melton, \"Quantification of Cholesteryl Ester Transfer Protein (CETP): A) CETP Activity and B) Immunochemical Assay of CETP Protein,\" Meth. Enzymol., 263, 339-351 (1996)). Human recombinant CETP can be obtained from the serum-free conditioned medium of CHO cells transfected with a cDNA for CETP and purified as described by Wang, S. et al. (J. Biol. Chem. 267, 17487-17490 (1992)). To measure CETP activity, [^3H]CE-labeled-HDL, LDL, CETP and assay buffer (50 mM tris(hydroxymethyl)aminomethane, pH 7.4; 150 mM sodium chloride; 2 mM ethylenediamine-tetraacetic acid (EDTA); 1% bovine serum albumin) were incubated in a final volume of 200 µL, for 2 hours at 37°C in 96 well plates. […] The inhibitors were then diluted 1:1 with CETP in assay buffer, and then 25 µL of that solution was mixed with 175 µL of lipoprotein pool for assay. Following incubation, LDL was differentially precipitated by the addition of 50 µL of 1% (w/v) dextran sulfate/0.5 M magnesium chloride, mixed by vortex, and incubated at room temperature for 10 minutes. A potion of the solution (200 µL) was transferred to a filter plate (Millipore). After filtration, the radioactivity present in the precipitated LDL was measured by liquid scintillation counting.\nThis value was defined as the IC50.", "units": {"IC50": "µM"}}
{"compound": "Cc1ccc(CN(CC(O)C(F)(F)F)c2cccc(C(F)(F)F)c2)cc1", "note": "(centres unmarked) [compound 45]", "IC50": 100}
{"compound": "COc1cc2c(cc1N(Cc1cccc(OC(F)(F)F)c1)CC(O)C(F)(F)F)oc1ccccc12", "note": "(centres unmarked) [compound 698]", "IC50": 100}
{"compound": "Cc1ccccc1N(Cc1cccc(C(F)(F)F)c1)CC(O)C(F)(F)F", "note": "(centres unmarked) [compound 21]", "IC50": "> 100"}
{"compound": "OC(CN(Cc1cccc(SC(F)(F)F)c1)c1cccc(Oc2ccc(F)cc2)c1)C(F)(F)F", "note": "(centres unmarked) [compound 636]", "IC50": 0.39}
{"compound": "O=C(Cc1ccccc1Oc1ccccc1)N(CC(O)C(F)(F)F)c1cccc(OC(F)(F)F)c1", "note": "(centres unmarked) [compound 361]", "IC50": "> 100"}
{"compound": "CCCCOC(=O)c1ccc(N(Cc2cccc(OC(F)(F)F)c2)CC(O)C(F)(F)F)cc1", "note": "(centres unmarked) [compound 164]", "IC50": "> 100"}
{"compound": "OC(CN(Cc1ccccc1)c1cccc(F)c1)C(F)(F)F", "note": "(centres unmarked) [compound 10]", "IC50": "> 100"}
{"compound": "OC(CN(Cc1cccc(OC(F)(F)C(F)F)c1)c1cccc(Oc2cccc(F)c2)c1)C(F)(F)F", "note": "(centres unmarked) [compound 240]", "IC50": 0.27}
{"compound": "OC(CN(Cc1ccccc1F)Cc1ccccc1C(F)(F)F)C(F)(F)F", "note": "(centres unmarked) [compound 696]", "IC50": 100}
{"compound": "OC(CN(Cc1cccc(OC(F)(F)C(F)F)c1)c1cccc(Oc2ccc(S)cc2)c1)C(F)(F)F", "note": "(centres unmarked) [compound 263]", "IC50": "> 50"}
{"compound": "COc1ccc(OC)c(C(=O)CN(CC(O)C(F)(F)F)c2cccc(OC(F)(F)F)c2)c1", "note": "(centres unmarked) [compound 340]", "IC50": 100}
{"compound": "OC(CN(Cc1cccc(OC(F)(F)C(F)F)c1)c1cccc(OCc2ccccn2)c1)C(F)(F)F", "note": "(centres unmarked) [compound 432]", "IC50": 1.7}
{"compound": "OC(CN(Cc1ccccc1C(F)(F)F)c1cccc(F)c1)C(F)(F)F", "note": "(centres unmarked) [compound 670]", "IC50": "> 100"}
{"compound": "O=C(c1cccc(C(F)(F)F)c1)N(CC(O)C(F)(F)F)c1cccc(F)c1", "note": "(centres unmarked) [Example 663, N-(3-fluorophenyl)-N-(3,3,3-trifluoro-2-hydroxypropyl)-3-(trifluoromethyl)benzamide]", "IC50": 100}
{"compound": "O=C(C=Cc1ccccc1)N(CC(O)C(F)(F)F)c1cccc(OC(F)(F)F)c1", "note": "(centres unmarked) [compound 351]", "IC50": 50}
{"compound": "COC(=O)c1cccc(CN(CC(O)C(F)(F)F)c2cccc(OC(F)(F)F)c2)c1", "note": "(centres unmarked) [compound 325]", "IC50": "> 100"}
{"compound": "OC(CN(Cc1ccc(-c2ccccc2)cc1)c1cccc(OC(F)(F)F)c1)C(F)(F)F", "note": "(centres unmarked) [compound 333]", "IC50": 100}
{"compound": "CC(C)(C)COc1cccc(N(Cc2cccc(OC(F)(F)C(F)F)c2)CC(O)C(F)(F)F)c1", "note": "(centres unmarked) [compound 506]", "IC50": 0.97}
{"compound": "OC(CN(Cc1ccccc1)c1cccc(Oc2ccccc2)c1)C(F)(F)F", "note": "(centres unmarked) [compound 217]", "IC50": 32}
{"compound": "Cc1cccc(CN(CC(O)C(F)(F)F)c2cccc(F)c2)c1", "note": "(centres unmarked) [compound 49]", "IC50": "> 100"}
{"compound": "OC(CN(Cc1cccc(OC(F)(F)C(F)F)c1)c1cccc(OC2CCCC2)c1)C(F)(F)F", "note": "(centres unmarked) [compound 509]", "IC50": 0.42}
{"compound": "OC(CN(Cc1cccc(Oc2cccc(C(F)(F)F)c2)c1)c1cccc(F)c1)C(F)(F)F", "note": "(centres unmarked) [compound 674]", "IC50": "> 100"}
{"compound": "OC(CN(Cc1cccc(OC(F)(F)C(F)F)c1)c1cccc(-c2ccccc2)c1)C(F)(F)F", "note": "(centres unmarked) [compound 564]", "IC50": 2.5}
{"compound": "CC(C)(C)c1ccc(COc2cccc(N(Cc3cccc(OC(F)(F)C(F)F)c3)CC(O)C(F)(F)F)c2)cc1", "note": "(centres unmarked) [compound 418]", "IC50": 2.1}
{"compound": "O=C(O)c1ccc(COc2cccc(N(Cc3cccc(OC(F)(F)C(F)F)c3)CC(O)C(F)(F)F)c2)cc1", "note": "(centres unmarked) [EX-435B, 4-[[3-[[[3-(1,1,2,2-tetrafluoroethoxy)phenyl]methyl](3,3,3-trifluoro-2-hydroxypropyl)amino]phenoxy]methyl]benzoic acid]", "IC50": "> 50"}
{"compound": "CCCOc1cccc(CN(CC(O)C(F)(F)F)c2cccc(Oc3ccc(F)cc3)c2)c1", "note": "(centres unmarked) [compound 648]", "IC50": 0.83}
{"compound": "OC(CN(Cc1ccc(C(F)(F)F)cc1)c1cccc(Oc2ccc(F)cc2)c1)C(F)(F)F", "note": "(centres unmarked) [compound 640]", "IC50": 4.3}
{"compound": "COc1cccc(N(Cc2cccc(C)c2)CC(O)C(F)(F)F)c1", "note": "(centres unmarked) [Example 3]", "IC50": 60}
{"compound": "OC(CN(Cc1ccc(-c2ccccc2)cc1)c1ccc(C(F)(F)F)cc1)C(F)(F)F", "note": "(centres unmarked) [compound 144]", "IC50": 100}
{"compound": "Fc1ccc(Oc2cccc(NCc3cccc(OC(F)(F)C(F)F)c3)c2)cc1", "note": "[634C]", "IC50": "> 100"}
{"compound": "OCCCOc1cccc(N(Cc2cccc(OC(F)(F)C(F)F)c2)CC(O)C(F)(F)F)c1", "note": "(centres unmarked) [compound 504]", "IC50": 14}
{"compound": "OC(COC(F)(F)C(F)F)CN(Cc1cccc(OC(F)(F)C(F)F)c1)c1cccc(Oc2ccc(F)cc2)c1", "note": "(centres unmarked) [compound 701]", "IC50": 4.5}
{"compound": "OC(CN(Cc1cccc(OCC2CC2)c1)c1cccc(Oc2ccc(F)cc2)c1)C(F)(F)F", "note": "(centres unmarked) [compound 651]", "IC50": 0.99}
{"compound": "OC(CN(Cc1cccc(OC(F)(F)C(F)F)c1)c1cccc(OCc2cc(F)cc(C(F)(F)F)c2)c1)C(F)(F)F", "note": "(centres unmarked) [compound 411]", "IC50": 0.25}
{"compound": "O=C(c1c(F)c(F)c(F)c(F)c1F)N(CC(O)C(F)(F)F)c1cccc(OC(F)(F)F)c1", "note": "(centres unmarked) [compound 343]", "IC50": 100}
{"compound": "Oc1cccc(CN(CC(O)C(F)(F)F)c2cccc(Oc3ccc(F)cc3)c2)c1", "note": "(centres unmarked) [compound 635]", "IC50": 80}
{"compound": "OC(CN(Cc1cccc(Oc2ccc(Cl)cc2)c1)c1cccc(OC(F)(F)F)c1)C(F)(F)F", "note": "(centres unmarked) [compound 93]", "IC50": 50}
{"compound": "Cc1ccc(CN(CC(O)C(F)(F)F)c2cccc(Cl)c2)cc1", "note": "(centres unmarked) [compound 34]", "IC50": 50}
{"compound": "OC(CN(Cc1cccc(OC(F)(F)C(F)F)c1)c1cccc(Oc2nccs2)c1)C(F)(F)F", "note": "(centres unmarked) [compound 448]", "IC50": 4.3}
{"compound": "CCCCOc1ccc(CN(CC(O)C(F)(F)F)c2cccc(OC(F)(F)F)c2)cc1", "note": "(centres unmarked) [compound 120]", "IC50": 50}
{"compound": "OC(COC(F)(F)C(F)F)CN(Cc1cccc(OC(F)(F)C(F)F)c1)c1cccc(Oc2ccc(C(F)(F)F)cc2)c1", "note": "(centres unmarked) [compound 702]", "IC50": 35}
{"compound": "OC(CN(Cc1cccc(OC(F)(F)C(F)F)c1)c1cccc(Cc2ccccc2)c1)C(F)(F)F", "note": "(centres unmarked) [compound 515]", "IC50": 1.8}
{"compound": "OC(CN(Cc1cccc(OC(F)(F)F)c1)c1cc(Oc2ccc(F)cc2)cc(C(F)(F)F)c1)C(F)(F)F", "note": "(centres unmarked) [compound 643]", "IC50": 2.1}
{"compound": "OC(CN(Cc1cccc(C(F)(F)F)c1)c1cc(Oc2ccc(F)cc2)cc(C(F)(F)F)c1)C(F)(F)F", "note": "(centres unmarked) [compound 641]", "IC50": 11}
{"compound": "Cc1ccccc1CN(CC(O)C(F)(F)F)c1cccc(F)c1", "note": "(centres unmarked) [compound 671]", "IC50": "> 100"}
{"compound": "Cc1cc(Oc2cccc(N(Cc3cccc(OC(F)(F)C(F)F)c3)CC(O)C(F)(F)F)c2)ccc1F", "note": "(centres unmarked) [compound 242]", "IC50": 0.076}
{"compound": "COc1ccccc1CC(=O)N(CC(O)C(F)(F)F)c1cccc(OC(F)(F)F)c1", "note": "(centres unmarked) [compound 339]", "IC50": "> 100"}
{"compound": "Cc1ccc(N(Cc2cccc(F)c2)CC(O)C(F)(F)F)cc1", "note": "(centres unmarked) [compound 32]", "IC50": "> 100"}
{"compound": "OC(CN(Cc1ccccc1)c1ccccc1)C(F)(F)F", "note": "(centres unmarked) [compound 2]", "IC50": 100}
{"compound": "CCOc1cccc(CN(CC(O)C(F)(F)F)c2cccc(Oc3ccc(F)cc3)c2)c1", "note": "(centres unmarked) [compound 646]", "IC50": 0.77}
{"compound": "O=C(c1cccc(N(Cc2cccc(OC(F)(F)C(F)F)c2)CC(O)C(F)(F)F)c1)N1CCOCC1", "note": "(centres unmarked) [compound 471]", "IC50": 50}
{"compound": "OCc1cccc(CN(CC(O)C(F)(F)F)c2cccc(Oc3ccccc3)c2)c1", "note": "(centres unmarked) [Example 618, 3-[[(3-phenoxyphenyl)(3,3,3-trifluoro-2-hydroxypropyl)amino]methyl]benzenemethanol]", "IC50": 100}
{"compound": "COc1cc(CN(CC(O)C(F)(F)F)c2cccc(OC(F)(F)F)c2)cc(OC)c1", "note": "(centres unmarked) [compound 350]", "IC50": 50}
{"compound": "OC(CF)CN(Cc1cccc(OC(F)(F)F)c1)Cc1cccc(OC(F)(F)F)c1", "note": "(centres unmarked) [compound 697]", "IC50": 55}
{"compound": "CC(C)COc1cccc(CN(CC(O)C(F)(F)F)c2cccc(Oc3ccc(F)cc3)c2)c1", "note": "(centres unmarked) [compound 652]", "IC50": 1.5}
{"compound": "OC(CN(Cc1cccc(OC(F)(F)C(F)F)c1)c1cccc(Oc2cccc(C(F)(F)F)c2F)c1)C(F)(F)F", "note": "(centres unmarked) [compound 227]", "IC50": 0.13}
{"compound": "OC(CN(Cc1ccc(C(F)(F)F)cc1)c1ccc(F)c(F)c1)C(F)(F)F", "note": "(centres unmarked) [compound 22]", "IC50": 50}
{"compound": "OC(CN(Cc1cccc(OC(F)(F)C(F)F)c1)c1cccc(OCCN2CCCC2)c1)C(F)(F)F", "note": "(centres unmarked) [compound 498]", "IC50": "> 50"}
{"compound": "OC(CN(Cc1cccc(Oc2cc(Cl)cc(Cl)c2)c1)c1cccc(OC(F)(F)F)c1)C(F)(F)F", "note": "(centres unmarked) [compound 96]", "IC50": 50}
